Assay results reported in US20230146455A1, “TREATMENT OF INFLAMMATORY DISEASES WITH PEPTIDES AND PHARMACEUTICAL COMPOSITIONS” (Yuyu Pharma, Inc., priority 2020, published 2023).
Where “and” joins values, the source holds several entries; their conditions need not be identical. Equal values may be shown once. Where a SMILES comes first, the peptide text is derived from it. [ ]: non-standard residue; d: D form. Hyp = O=C(O)[C@@H]1C[C@@H](O)CN1

Legend:
MMP-9 = experiment: Example 9 Luminex, LPS hPBMCs: MMP-9; format: cell-based, human
Description: (§1) Treatment Human PBMCs were pretreated with YY-101, YDE-011 and YDE-043 or reference compound; Xiidra® at various concentration (ranging from 1 nM to 100 uM) for 2 h before stimulation. An equal volume of 0.5% DMSO was used as a vehicle control. Then, the cells were treated with LPS at 5 ug/ml. The supernatants from treated cells were harvested at 24 h and placed in a 96 well for Luminex cytokine & chemokine profiling using a Luminex 200 multiplex assay (Luminex; R&D system, USA).
(§2) The main study arm with triplicate wells per group in a 24-well plate: • 1. Blank • 2. PBMC: 0.5% DMSO • 3. PBMC+LPS (5 ug/ml) • 4. PBMC+YY-101 100 uM • 5. PBMC+YY-101 10 uM • 6. PBMC+YY-101 1 uM • 7. PBMC+YY-101 0.1 uM • 8. PBMC+YY-101 0.01 uM • 9. PBMC+LPS (5 ug/ml)+Xiidra®100 uM • 10. PBMC+LPS (5 ug/ml)+Xiidra® 10 uM • 11. PBMC+LPS (5 ug/ml)+Xiidra® 1 uM • 12. PBMC+LPS (5 ug/ml)+Xiidra®0.1 uM • 13. PBMC+LPS (5 ug/ml)+Xiidra®0.01 uM • 14. PBMC+LPS (5 ug/ml)+Xiidra®0.001 uM • 15. PBMC+LPS (5 ug/ml)+YY-101 100 uM • 16. PBMC+LPS (5 ug/ml)+YY-101 10 uM • 17. PBMC+LPS (5 ug/ml)+YY-101 1 uM • 18. PBMC+LPS (5 ug/ml)+YY-101 0.1 uM • 19. PBMC+LPS (5 ug/ml)+YY-101 0.01 uM • 20. PBMC+LPS (5 ug/ml)+YY-101 0.001 uM • 21. PBMC+LPS (5 ug/ml)+YDE-011 100 uM • 22. PBMC+LPS (5 ug/ml)+YDE-011 10 uM • 23. PBMC+LPS (5 ug/ml)+YDE-011 1 uM • 24. PBMC+LPS (5 ug/ml)+YDE-011 0.1 uM • 25. PBMC+LPS (5 ug/ml)+YDE-011 0.01 uM • 26. PBMC+LPS (5 ug/ml)+YDE-011 0.001 uM • 27. PBMC+LPS (5 ug/ml)+YDE-043 100 uM • 28. PBMC+LPS (5 ug/ml)+YDE-043 10 uM • 29. PBMC+LPS (5 ug/ml)+YDE-043 1 uM • 30. PBMC+LPS (5 ug/ml)+YDE-043 0.1 uM • 31. PBMC+LPS (5 ug/ml)+YDE-043 0.01 uM • 32. PBMC+LPS (5 ug/ml)+YDE-043 0.001 uM
(§3) Multiplex assay was used to measure 30 cytokines and chemokines. The 1:2, 1:10 and 1:200 diluted cell supernatant and serial dilution of the standard were dispensed into a 96 well plate at 50 ul/well. Then, the pre-mixed cocktail of antibody-coated magnetic beads was dispensed at 50 ul/well and incubated at room temperature for 2 h in a horizontal orbital microplate shaker at 800±500 rpm. The beads were washed using a magnetic device to prevent loss. The biotin-antibody was dispensed in 50 ul of each well and incubated at room temperature for 1 h in a shaker at 800±500 rpm. After washing, streptavidin-PE was added at 50 ul/well and incubated at room temperature for 30 min in a shaker under the same conditions. Finally, after washing, wash buffer (100 ul/well) was added to the plate and incubated in a shaker for 2 min. The Luminex™ 200 setting were set according to the manufacturer's protocol. The data was calculated with a standard five-parameter logistic nonlinear regression analysis of the data (xPonent software 4.2, USA). The levels of cytokine/chemokine are normalized to the live cell counts (1×10^5 cells/mL) and presented as concentrations per mL (pg/mL or ng/mL).

CCL20/MIP-3 alpha = experiment: Example 9 Luminex, LPS hPBMCs: CCL20/MIP-3 alpha; format: cell-based, human
Description: as §1, §2, §3

[1] = PBMC + LPS(5 ug/ml) + 0.001 uM, Mean
[2] = PBMC + LPS(5 ug/ml) + 0.001 uM, single replicates
[3] = PBMC + LPS(5 ug/ml) + 0.01 uM, Mean
[4] = PBMC + LPS(5 ug/ml) + 0.01 uM, single replicates
[5] = PBMC + LPS(5 ug/ml) + 0.1 uM, Mean
[6] = PBMC + LPS(5 ug/ml) + 0.1 uM, single replicates
[7] = PBMC + LPS(5 ug/ml) + 1 uM, Mean
[8] = PBMC + LPS(5 ug/ml) + 1 uM, single replicates
[9] = PBMC + LPS(5 ug/ml) + 10 uM, Mean
[10] = PBMC + LPS(5 ug/ml) + 10 uM, single replicates
[11] = PBMC + LPS(5 ug/ml) + 100 uM, Mean
[12] = PBMC + LPS(5 ug/ml) + 100 uM, single replicates
[13] = PBMC + LPS(5 ug/ml) + test article 0.001 uM, Mean
[14] = PBMC + LPS(5 ug/ml) + test article 0.001 uM, individual replicate
[15] = PBMC + LPS(5 ug/ml) + test article 0.01 uM, Mean
[16] = PBMC + LPS(5 ug/ml) + test article 0.01 uM, individual replicate
[17] = PBMC + LPS(5 ug/ml) + test article 0.1 uM, Mean
[18] = PBMC + LPS(5 ug/ml) + test article 0.1 uM, individual replicate
[19] = PBMC + LPS(5 ug/ml) + test article 1 uM, Mean
[20] = PBMC + LPS(5 ug/ml) + test article 1 uM, individual replicate
[21] = PBMC + LPS(5 ug/ml) + test article 10 uM, Mean
[22] = PBMC + LPS(5 ug/ml) + test article 10 uM, individual replicate
[23] = PBMC + LPS(5 ug/ml) + test article 100 uM, Mean
[24] = PBMC + LPS(5 ug/ml) + test article 100 uM, individual replicate

In the case of `CC(C)C[C@H](NC(=O)CNC(=O)[C@H](CC(C)C)NC(=O)[C@H](CCC(N)=O)NC(=O)CNC(=O)[C@@H]1C[C@@H](O)CN1)C(=O)N[C@@H](C)C(=O)NCC(=O)N1CCC[C@H]1C(=O)N[C@@H](CCCCN)C(=O)O` [YDE-011] (H-[Hyp]GQLGLAGPK-OH), the “MMP-9 Concentration” value (MMP-9; [1]) is reported as 206.3 pg/mL, the MMP-9 conc/live cell (MMP-9; [1]) is reported as 39.4 pg/10^5 and the “MMP-9 Concentration” value (MMP-9; [2]) is reported as 228.2 pg/mL and 186.3 pg/mL and 204.5 pg/mL. The MMP-9 conc/live cell (MMP-9; [2]) was 50.7 pg/10^5 and 32.1 pg/10^5 and 35.3 pg/10^5, the “MMP-9 Concentration” value (MMP-9; [3]) was 180.2 pg/mL and the MMP-9 conc/live cell (MMP-9; [3]) was 31.1 pg/10^5. The “MMP-9 Concentration” value (MMP-9; [4]) was 174.0 pg/ml (2×) and 192.4 pg/ml, the MMP-9 conc/live cell (MMP-9; [4]) was 27.6 pg/10^5 and 28.1 pg/10^5 and 37.7 pg/10^5 and the “MMP-9 Concentration” value (MMP-9; [5]) was 180.2 pg/mL. The MMP-9 conc/live cell (MMP-9; [5]) was 31.5 pg/10^5, the “MMP-9 Concentration” value (MMP-9; [6]) was 192.4 pg/ml and 174.0 pg/ml (2×) and the MMP-9 conc/live cell (MMP-9; [6]) was 29.2 pg/10^5 and 34.8 pg/10^5 and 30.5 pg/10^5. For the same compound, the “MMP-9 Concentration” value (MMP-9; [7]) was 188.3 pg/mL, the MMP-9 conc/live cell (MMP-9; [7]) was 37.5 pg/10^5 and the “MMP-9 Concentration” value (MMP-9; [8]) was 192.4 pg/ml (2×) and 180.2 pg/ml. For the same compound, the MMP-9 conc/live cell (MMP-9; [8]) was 35.0 pg/10^5 and 37.5 pg/10^5 and 40.1 pg/10^5, the “MMP-9 Concentration” value (MMP-9; [9]) was 190.4 pg/mL and the MMP-9 conc/live cell (MMP-9; [9]) was 36.1 pg/10^5. For the same compound, the “MMP-9 Concentration” value (MMP-9; [10]) was 186.3 pg/ml (2×) and 198.5 pg/ml, the MMP-9 conc/live cell (MMP-9; [10]) was 34.5 pg/10^5 and 34.2 pg/10^5 and 39.6 pg/10^5 and the “MMP-9 Concentration” value (MMP-9; [11]) was 167.8 pg/mL. The MMP-9 conc/live cell (MMP-9; [11]) was 27.7 pg/10^5, the “MMP-9 Concentration” value (MMP-9; [12]) was 167.8 pg/mL and 174.0 pg/mL and 161.5 pg/mL and the MMP-9 conc/live cell (MMP-9; [12]) was 27.5 pg/10^5 and 28.5 pg/10^5 and 26.9 pg/10^5. The “Concentration, CCL20/MIP-3 alpha” value (CCL20/MIP-3 alpha; [13]) was 246.5 pg/mL, the “MFI, CCL20/MIP-3 alpha” value (CCL20/MIP-3 alpha; [13]) was 263.3 and the “conc/live cell, CCL20/MIP-3 alpha” value (CCL20/MIP-3 alpha; [13]) was 46.9 pg/10^5. The “Concentration, CCL20/MIP-3 alpha” value (CCL20/MIP-3 alpha; [14]) was 264.2 pg/mL and 223.2 pg/mL and 252.1 pg/mL, the “MFI, CCL20/MIP-3 alpha” value (CCL20/MIP-3 alpha; [14]) was 284.5 and 235.5 and 270.0 and the “conc/live cell, CCL20/MIP-3 alpha” value (CCL20/MIP-3 alpha; [14]) was 58.7 pg/10^5 and 38.5 pg/10^5 and 43.5 pg/10^5. The “Concentration, CCL20/MIP-3 alpha” value (CCL20/MIP-3 alpha; [15]) was 255.6 pg/mL, the “MFI, CCL20/MIP-3 alpha” value (CCL20/MIP-3 alpha; [15]) was 274.2 and the “conc/live cell, CCL20/MIP-3 alpha” value (CCL20/MIP-3 alpha; [15]) was 44.2 pg/10^5. For the same compound, the “Concentration, CCL20/MIP-3 alpha” value (CCL20/MIP-3 alpha; [16]) was 233.3 pg/mL and 258.8 pg/mL and 274.6 pg/mL, the “MFI, CCL20/MIP-3 alpha” value (CCL20/MIP-3 alpha; [16]) was 247.5 and 278.0 and 297.0 and the “conc/live cell, CCL20/MIP-3 alpha” value (CCL20/MIP-3 alpha; [16]) was 37.0 pg/10^5 and 41.7 pg/10^5 and 53.8 pg/10^5. The “Concentration, CCL20/MIP-3 alpha” value (CCL20/MIP-3 alpha; [17]) was 239.4 pg/mL, the “MFI, CCL20/MIP-3 alpha” value (CCL20/MIP-3 alpha; [17]) was 254.8 and the “conc/live cell, CCL20/MIP-3 alpha” value (CCL20/MIP-3 alpha; [17]) was 42.0 pg/10^5. The “Concentration, CCL20/MIP-3 alpha” value (CCL20/MIP-3 alpha; [18]) was 238.3 pg/mL and 231.6 pg/mL and 248.4 pg/mL, the “MFI, CCL20/MIP-3 alpha” value (CCL20/MIP-3 alpha; [18]) was 253.5 and 245.5 and 265.5 and the “conc/live cell, CCL20/MIP-3 alpha” value (CCL20/MIP-3 alpha; [18]) was 36.1 pg/10^5 and 46.3 pg/10^5 and 43.6 pg/10^5. For the same compound, the “Concentration, CCL20/MIP-3 alpha” value (CCL20/MIP-3 alpha; [19]) was 211.3 pg/mL, the “MFI, CCL20/MIP-3 alpha” value (CCL20/MIP-3 alpha; [19]) was 221.5 and the “conc/live cell, CCL20/MIP-3 alpha” value (CCL20/MIP-3 alpha; [19]) was 42.2 pg/10^5. The “Concentration, CCL20/MIP-3 alpha” value (CCL20/MIP-3 alpha; [20]) was 203.6 pg/mL and 208.7 pg/mL and 221.5 pg/mL, the “MFI, CCL20/MIP-3 alpha” value (CCL20/MIP-3 alpha; [20]) was 212.5 and 218.5 and 233.5 and the “conc/live cell, CCL20/MIP-3 alpha” value (CCL20/MIP-3 alpha; [20]) was 37.0 pg/10^5 and 43.5 pg/10^5 and 46.1 pg/10^5. The “Concentration, CCL20/MIP-3 alpha” value (CCL20/MIP-3 alpha; [21]) was 230.3 pg/mL, the “MFI, CCL20/MIP-3 alpha” value (CCL20/MIP-3 alpha; [21]) was 244.0 and the “conc/live cell, CCL20/MIP-3 alpha” value (CCL20/MIP-3 alpha; [21]) was 43.9 pg/10^5. For the same compound, the “Concentration, CCL20/MIP-3 alpha” value (CCL20/MIP-3 alpha; [22]) was 234.1 pg/mL and 222.3 pg/mL and 234.5 pg/mL, the “MFI, CCL20/MIP-3 alpha” value (CCL20/MIP-3 alpha; [22]) was 248.5 and 234.5 and 249.0 and the “conc/live cell, CCL20/MIP-3 alpha” value (CCL20/MIP-3 alpha; [22]) was 43.4 pg/10^5 and 38.3 pg/10^5 and 49.9 pg/10^5. The “Concentration, CCL20/MIP-3 alpha” value (CCL20/MIP-3 alpha; [23]) was 323.4 pg/mL, the “MFI, CCL20/MIP-3 alpha” value (CCL20/MIP-3 alpha; [23]) was 356.5 and the “conc/live cell, CCL20/MIP-3 alpha” value (CCL20/MIP-3 alpha; [23]) was 53.3 pg/10^5. For the same compound, the “Concentration, CCL20/MIP-3 alpha” value (CCL20/MIP-3 alpha; [24]) was 342.2 pg/mL and 319.4 pg/mL and 308.7 pg/mL, the “MFI, CCL20/MIP-3 alpha” value (CCL20/MIP-3 alpha; [24]) was 379.5 and 351.5 and 338.5 and the “conc/live cell, CCL20/MIP-3 alpha” value (CCL20/MIP-3 alpha; [24]) was 56.1 pg/10^5 and 52.4 pg/10^5 and 51.5 pg/10^5.
